Reference: patent US20260001928A1 (CORTERIA PHARMACEUTICALS, priority 2022, published 2026)
*1 amine or outer side, *2 acyl side, *3 side chain or, on linkers, in order; H or OH if unused. Where a SMILES comes first, the peptide text is derived from it. Side-chain parts run from the residue outwards. The star is where a group is joined. C18 diacid = O=C(O)CCCCCCCCCCCCCCCCC(=O)*; γGlu = O=C(O)[C@H](CCC(=O)[*:2])N[*:1]; AEEA = NCCOCCOCC(=O)O

Tests used:
[1] = In vitro subcutaneous tissue supernatant (SCts) stability and metabolite identification, rat; assay type: in vitro ADME; conditions: in vitro soft spot identification, rat SCts
[2] = In vivo metabolite identification on rat plasma samples after SC administration; conditions: rat plasma after SC administration at 1 mg/kg
Procedure: Software aided in vitro metabolite identification on SCts stability samples was performed using either Metabolite Pilot (Sciex) or Biopharma Finder (Thermo). In addition, metabolite identification using Metabolite Pilot was performed on plasma samples of Comp Y following SC administration to rat at 1 mg/kg.

CC[C@H](C)[C@H](N)C(=O)N[C@H](C(=O)N[C@@H](CC(C)C)C(=O)N[C@@H](CO)C(=O)N[C@@H](CC(C)C)C(=O)N[C@@H](CC(=O)O)C(=O)N[C@H](C(=O)N1CCC[C@H]1C(=O)N[C@H](C(=O)N[C@@H](CCCCN)C(=O)N[C@@H](CC(C)C)C(=O)N[C@@H](CCCCNC(=O)COCCOCCNC(=O)COCCOCCNC(=O)CC[C@H](NC(=O)CCCCCCCCCCCCCCCCC(=O)O)C(=O)O)C(=O)N[C@@H](CCCCN)C(=O)N[C@H](C(=O)N[C@@H](CC(C)C)C(=O)N[C@@H](CC(C)C)C(=O)N[C@@H](CCC(=O)O)C(=O)N[C@@H](CCC(N)=O)C(=O)N[C@@H](CCC(=O)O)C(=O)N[C@@H](CCCCN)C(=O)N[C@@H](CCC(N)=O)C(=O)N[C@@H](CCCCN)C(=O)N[C@@H](CCCCN)C(=O)N[C@@H](CCC(N)=O)C(=O)N[C@@H](CCCNC(=N)N)C(=O)N[C@@H](CCC(=O)O)C(=O)N[C@@H](CCC(N)=O)C(=O)N[C@@H](C)C(=O)N[C@@H](CCC(=O)O)C(=O)N[C@H](C(=O)N[C@@H](CC(N)=O)C(=O)N[C@@H](CCCCN)C(=O)N[C@@H](CCC(N)=O)C(=O)N[C@H](C(=O)N[C@@H](CC(C)C)C(=O)N[C@@H](C)C(=O)N[C@@H](CCC(N)=O)C(=O)N[C@H](C(N)=O)C(C)C)[C@@H](C)CC)[C@@H](C)O)[C@@H](C)CC)[C@@H](C)CC)C(C)C)C(C)C [SEQ ID No. 149, reference compound] (H-IVLSLDVPIKLK([AEEA-AEEA-γGlu-C18 diacid])KILLEQEKQKKQREQAETNKQILAQV-NH2)
major metabolic soft spot, in vitro [1]: N-terminus | major metabolic soft spot, in vivo [2]: N-terminus
